From the Kinase Knowledgebase extract (Sharma et al. 2016)
Values after ≈ are worked out from the molar mass of the structure shown.

Experiments:
EGFR (human) [1] = target: EGFR (human) (UniProt P00533); details: mda-mb-435
EGFR (human) [2] = target: EGFR (human) (UniProt P00533); details: sk-br-3
EGFR (human) [3] = target: EGFR (human) (UniProt P00533); details: sw 620
EGFR (human) [4] = target: EGFR (human) (UniProt P00533); details: 3t3
EGFR (human) [5] = target: EGFR (human) (UniProt P00533); details: a431
EGFR = EGFR (UniProt P00533); details: for inhibition: concentration not given here
Sequence of EGFR (P00533 whole entry, looked up): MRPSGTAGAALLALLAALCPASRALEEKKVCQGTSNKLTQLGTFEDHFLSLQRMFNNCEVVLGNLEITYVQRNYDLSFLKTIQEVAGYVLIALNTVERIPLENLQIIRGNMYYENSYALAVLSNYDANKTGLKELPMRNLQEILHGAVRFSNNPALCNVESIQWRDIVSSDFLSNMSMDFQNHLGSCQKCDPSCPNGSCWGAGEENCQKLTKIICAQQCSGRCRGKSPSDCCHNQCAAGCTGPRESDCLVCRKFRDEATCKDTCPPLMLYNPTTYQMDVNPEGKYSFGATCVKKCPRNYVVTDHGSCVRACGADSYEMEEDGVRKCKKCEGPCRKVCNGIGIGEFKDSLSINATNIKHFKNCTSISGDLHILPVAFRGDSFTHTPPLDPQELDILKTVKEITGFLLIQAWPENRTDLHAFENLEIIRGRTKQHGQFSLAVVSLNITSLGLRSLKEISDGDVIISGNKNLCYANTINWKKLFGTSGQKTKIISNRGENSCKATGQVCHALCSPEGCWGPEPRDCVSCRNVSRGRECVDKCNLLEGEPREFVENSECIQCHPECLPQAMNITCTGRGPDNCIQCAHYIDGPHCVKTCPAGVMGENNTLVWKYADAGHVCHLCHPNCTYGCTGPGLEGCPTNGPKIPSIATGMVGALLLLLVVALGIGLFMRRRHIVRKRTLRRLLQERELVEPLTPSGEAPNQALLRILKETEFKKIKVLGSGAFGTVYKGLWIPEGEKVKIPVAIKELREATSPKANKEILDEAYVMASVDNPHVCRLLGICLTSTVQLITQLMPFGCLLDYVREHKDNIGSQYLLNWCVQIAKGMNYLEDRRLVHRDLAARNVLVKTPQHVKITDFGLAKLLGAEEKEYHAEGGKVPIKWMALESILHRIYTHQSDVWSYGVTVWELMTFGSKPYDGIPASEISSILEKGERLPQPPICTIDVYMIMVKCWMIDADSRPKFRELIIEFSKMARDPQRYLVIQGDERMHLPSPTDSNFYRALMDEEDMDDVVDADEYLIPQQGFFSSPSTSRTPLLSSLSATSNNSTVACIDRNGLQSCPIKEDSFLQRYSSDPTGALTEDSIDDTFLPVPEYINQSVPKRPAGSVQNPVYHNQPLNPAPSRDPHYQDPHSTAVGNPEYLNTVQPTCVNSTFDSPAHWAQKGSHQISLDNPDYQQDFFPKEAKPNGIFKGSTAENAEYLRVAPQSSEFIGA

EGFR (human) [6] = target: EGFR (human) (UniProt P00533); details: a2780
EGFR (human) [7] = target: EGFR (human) (UniProt P00533); details: ddp

Sequence of EGFR (human) (P00533 whole entry, looked up): as above

Compound	IC50 (EGFR (human) [1]) [µg/mL]	IC50 (EGFR (human) [2]) [µg/mL]	IC50 (EGFR (human) [3]) [µg/mL]	IC50 (EGFR (human) [4]) [µg/mL]	IC50 (EGFR (human) [5]) [µg/mL]	inhibition (EGFR) [%]	other results
CCOc1cc2ncc(C#N)c(Nc3ccc4c(c3)CCC4)c2cc1OCC	0.352 (≈ 0.943 µM)	> 0.294	< 0.0005	0.525 (≈ 1.41 µM)	–	–	–
CCOc1cc2ncc(C#N)c(Nc3ccc4c(c3)C(=O)NCC(=O)N4C)c2cc1OCC	> 5	> 5	> 5	–	> 5	–	–
CCOc1cc2ncc(C#N)c(Nc3ccc4c(c3)NCC4)c2cc1OCC	–	–	–	–	–	6	IC50 (EGFR): > 10000 nM
COc1cc2ncc(C#N)c(Nc3cccc4cnccc34)c2cc1OC	–	–	–	–	–	0	–
CCOc1cc2ncc(C#N)c(Nc3ccc4c(c3)S(=O)(=O)C=C4)c2cc1OCC	0.0033 (≈ 0.00783 µM)	0.336 (≈ 0.797 µM)	0.146 (≈ 0.346 µM)	0.392 (≈ 0.93 µM)	–	–	–
COCCOc1cc2ncc(C#N)c(Nc3ccc4cn[nH]c4c3)c2cc1OCCOC	2.04 (≈ 4.72 µM)	> 5	> 5	> 5	–	–	–
CCOc1cc2ncc(C#N)c(Nc3ccc4c(c3)CCC4=O)c2cc1OCC	0.028 (≈ 0.0723 µM)	0.0281 (≈ 0.0725 µM)	–	0.0923 (≈ 0.238 µM)	0.0244 (≈ 0.063 µM)	–	–
COc1cc2ncc(C#N)c(Nc3ccc4[nH]c(=O)sc4c3)c2cc1OC	–	–	–	–	–	0	–
CCOc1cc2ncc(C#N)c(Nc3ccc4[nH]c(=O)oc(=O)c4c3)c2cc1OCC	> 5	> 5	2.92 (≈ 6.98 µM)	> 5	> 5	–	–
CCOc1cc2ncc(C#N)c(Nc3ccc4c(C)cc(=O)oc4c3)c2cc1OCC	–	0.429 (≈ 1.03 µM)	0.325 (≈ 0.782 µM)	–	0.369 (≈ 0.888 µM)	–	IC50 (EGFR (human) [6]): 0.27 µg/mL (≈ 0.65 µM); IC50 (EGFR (human) [7]): 0.249 µg/mL (≈ 0.599 µM)
COc1cc2ncc(C#N)c(Nc3cccc4ncccc34)c2cc1OC	–	–	–	–	–	0	–
CCOc1cc2ncc(C#N)c(Nc3ccc4cc[nH]c4c3)c2cc1OCC	0.073 to 0.365 (≈ 0.196 to 0.98 µM)	0.0374 to 0.18 (≈ 0.1 to 0.483 µM)	0.286 to 0.326 (≈ 0.768 to 0.875 µM)	–	0.123 to 0.216 (≈ 0.33 to 0.58 µM)	–	IC50 (EGFR (human) [6]): 0.231 µg/mL (≈ 0.62 µM); IC50 (EGFR (human) [7]): 0.313 µg/mL (≈ 0.84 µM)
CCOc1cc2ncc(C#N)c(Nc3ccc4c(=O)[nH][nH]c(=O)c4c3)c2cc1OCC	> 5	> 5	> 5	> 5	> 5	–	–
CCOc1cc2ncc(C#N)c(Nc3ccc4cn[nH]c4c3)c2cc1OCC	0.02 (≈ 0.0536 µM)	0.016 (≈ 0.0428 µM)	0.033 (≈ 0.0884 µM)	–	0.025 (≈ 0.0669 µM)	–	IC50 (EGFR (human) [6]): 0.032 µg/mL (≈ 0.0857 µM); IC50 (EGFR (human) [7]): 0.036 µg/mL (≈ 0.0964 µM)
CCOc1cc2c(Nc3ccc4cn[nH]c4c3)c(C#N)cnc2cc1OC	2.63 (≈ 7.31 µM)	2.09 (≈ 5.83 µM)	4.31 (≈ 12 µM)	3.22 (≈ 8.96 µM)	–	–	–
Cn1ccnc1Sc1ccc(Nc2c(C#N)cnc3ccc(/C=C/C(N)=O)cc23)cc1Cl	–	–	–	–	–	–	IC50 (EGFR): 10 nM
COc1cc2c(Nc3ccc4cn[nH]c4c3)c(C#N)cnc2cc1OCCN(C)C	–	–	–	–	–	0	–
CCOc1cc2ncc(C#N)c(Nc3ccc4c[nH]nc4c3)c2cc1OC	0.0359 (≈ 0.0999 µM)	0.022 (≈ 0.0612 µM)	0.0212 (≈ 0.059 µM)	–	–	–	–
COc1cc2ncc(C#N)c(Nc3ccc4[nH]ccc4c3)c2cc1OC	–	–	–	–	–	–	IC50 (EGFR): 1.5 to 4 nM
COc1cc2ncc(C#N)c(Nc3ccc4[nH]ncc4c3)c2cc1OC	–	–	–	–	–	0	–
CCOc1cc2ncc(C#N)c(Nc3ccc4c(c3)OCCO4)c2cc1OCC	0.235 (≈ 0.6 µM)	0.281 (≈ 0.718 µM)	0.411 (≈ 1.05 µM)	0.853 (≈ 2.18 µM)	–	–	–
CCOc1cc2ncc(C#N)c(Nc3ccc4c(c3)C(=O)OC4)c2cc1OCC	3.4 (≈ 8.74 µM)	> 5	1.56 (≈ 4.02 µM)	–	> 5	–	–
COc1cc2ncc(C#N)c(Nc3ccc(O)c4ncccc34)c2cc1OC	–	–	–	–	–	0	–
